This note sets out measurements from US20140171475A1, “ANIMAL ECTOPARASITE-CONTROLLING AGENT” (SUMITOMO CHEMICAL COMPANY, LIMITED, priority 2011, published 2014).

Assay [1] deals with Ctenocephalides felies fleas on mouse. Briefly: Oral administration against mouse-infested fleas. The format is in vivo. The conditions noted are these: test solution 20 mg/10 mL at 10 mL per 1 kg mouse body weight, 2 days after flea deposition. On the procedure: The present benzylamide compound (13) (20 mg) was dissolved in dimethylformamide (680 mg), and thereto a corn oil was added to prepare a test solution (10 mL). Said test solution was orally administered to the mouse at the rate of 10 mL per 1 kg of the body weight of the mouse with a gastric sonde. To a control group, a 7% dimethylformamide/corn oil solution alone was orally administered. Each administration was repeated 3 times per group. After the administration, 20 test fleas (Ctenocephalides felies) were deposited on a mouse.
Two (2) days after the deposition, the number of dead fleas was examined and the mortality was calculated by the following formula:
Mortality (%)=100×(number of dead fleas/number of fleas tested)

Assay [2] has as its system Haemaphysalis longicornis (non-blood-fed young ticks). Nature of the assay: Pesticidal activity on ticks, dry film contact application test. The assay is classed as in vivo. To be noted: 48 h. The protocol:
Any one of the present benzylamide compounds (12), (13), (15), (28), (29), (30), (31), (32), (33), (34), (37) and (38) (16 μg) was dissolved in acetone (0.2 mL), and into a screw bottle (20 mL volume) this solution was dropwised and capped the bottle. Then the capped-bottle was made rolling so that the inner-surface of the screw bottle was uniformly coated with the solution. The acrew bottle was capped off and allowed to dry up for 2 hours. Into the screw bottle, test ticks (Haemaphysalis longicornis, non-blood-fed young ticks, 10 ticks/group) were added, and capped the bottle. Two (2) days later, the number of dead ticks was examined and the mortality was calculated by the following formula:
Mortality (%)=100×(number of dead ticks/number of ticks tested)

Take `O=C(NCc1cc(C2=NOC(c3cc(Cl)cc(Cl)c3)(C(F)(F)F)C2)ccc1Cl)C1CC1` (centres unmarked) [Compound (13)]: the Mortality in assay [1] was at least 70%. In assay [2], the mortality at 16 µg/bottle is at least 90%.

Broadly, the mortality is the percentage killed. A higher mortality goes with fewer survivors.
